Assay results reported in patent publication US6620828B2, “Thiazole compounds and pharmaceutical compositions for inhibiting protein kinases and methods for their use” (Agouron Pharmaceuticals, Inc., priority 1999, dated 2003).

What was measured:
[1] = system: human umbilical vein endothelial cells (HUVEC); test: HUVEC proliferation assay; assay type: cell-based; details: Homo sapiens, HUVEC, Table 2
Method in brief: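 Readout was MTT dye reduction (A595) after 72 h of stimulation with VEGF at 6 ng/ml final. Compound, in 0.1% DMSO final, was added 1 h before VEGF to HUVEC starved 24 h in 1% FBS. % inhibition was scaled between VEGF-alone and unstimulated wells; IC50 was fitted from triplicate dose curves.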

CDK4/Cyclin D3 complex = target: T1, CDK4/Cyclin D3 complex (Homo sapiens, UniProt P11802); test: CDK4/Cyclin D assay; assay type: biochemical; details: Table 2
T1 construct: made in house; host or cells: insect cells co-infected with baculovirus vectors
T1 sequence (P11802 whole entry): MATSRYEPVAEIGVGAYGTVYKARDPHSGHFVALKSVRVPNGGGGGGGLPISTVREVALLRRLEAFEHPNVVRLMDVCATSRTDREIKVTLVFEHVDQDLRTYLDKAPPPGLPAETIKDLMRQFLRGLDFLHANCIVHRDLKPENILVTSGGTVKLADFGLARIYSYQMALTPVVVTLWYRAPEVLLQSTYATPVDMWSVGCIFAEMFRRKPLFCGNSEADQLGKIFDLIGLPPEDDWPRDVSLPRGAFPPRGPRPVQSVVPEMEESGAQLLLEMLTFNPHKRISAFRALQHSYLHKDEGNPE
T1 sequence (P30281 whole entry partner): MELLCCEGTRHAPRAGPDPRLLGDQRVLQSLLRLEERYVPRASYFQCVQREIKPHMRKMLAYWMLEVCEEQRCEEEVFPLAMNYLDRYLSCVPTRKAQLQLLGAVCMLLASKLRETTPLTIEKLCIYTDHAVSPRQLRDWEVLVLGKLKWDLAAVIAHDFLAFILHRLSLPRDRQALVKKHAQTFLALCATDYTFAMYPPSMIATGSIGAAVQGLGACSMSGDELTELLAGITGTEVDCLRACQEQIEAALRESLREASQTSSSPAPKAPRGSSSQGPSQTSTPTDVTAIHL
Method in brief: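 Insect-cell-expressed CDK4/cyclin D3 (50 nM) phosphorylating His-tagged Rb fragment (residues 386-928) with 25 μM [^32P]ATP in HEPES pH 7.4, MgCl2, 2% DMSO; 20 min at 30 °C, EDTA stop. Filter-captured 32P by phosphorimager; apparent Ki from competitive or tight-binding inhibition fits.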

LCK tyrosine kinase = target: T2, LCK tyrosine kinase (Homo sapiens, UniProt P06239, C224D/P223M); test: LCK spectrophotometric assay; assay type: biochemical; details: Table 2; for LCK % inhibition @ 1: at 1 (head μM)
T2 construct: starting from amino acid residue 223 to the end of the protein at residue 509; made in house; host or cells: insect cells
T2 sequence (P06239 223-509 P223M/C224D): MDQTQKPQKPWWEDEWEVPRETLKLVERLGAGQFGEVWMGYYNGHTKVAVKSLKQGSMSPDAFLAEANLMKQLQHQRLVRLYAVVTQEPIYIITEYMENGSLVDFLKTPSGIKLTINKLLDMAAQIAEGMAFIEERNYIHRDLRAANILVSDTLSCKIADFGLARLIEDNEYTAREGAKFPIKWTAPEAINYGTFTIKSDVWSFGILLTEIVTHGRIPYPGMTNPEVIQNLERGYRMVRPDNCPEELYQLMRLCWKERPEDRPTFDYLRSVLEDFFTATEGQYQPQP
Protocol: LCK Construct for Assay: The LCK tyrosine kinase was expressed in insect cells as an N-terminal deletion starting from amino acid residue 223 to the end of the protein at residue 509, with the following two amino acid substitutions at the N-terminus: […] and C224D.
The spectrophotometric assay was carried out as described above for VEGF-R2, except for the following changes in concentration: LCK=60 nM, MgCl2=0 mM, poly(E4Y1)=20 mM.

[2] = system: lung cancer cells (line MV522); test: Cancer cell proliferation (MV522) assay; assay type: cell-based; details: MV522, Table 2

SMILES | IC50 [1] | melting point | Ki (CDK4/Cyclin D3 complex) | LCK % inhibition @ 1 (LCK tyrosine kinase) | IC50 [2] | LCK % inhibition @ 5 (LCK tyrosine kinase; at 5 (head μM))
COc1cc(Nc2nc(N)c(-c3nc(-c4cccc(O)c4)cs3)s2)cc(OC)c1OC [A(17), 3-[4′-Amino-2′-(3,4,5-trimethoxy-phenylamino)-[2,5′]bithiazolyl-4-yl]-phenol] | > 1 µM | 226 to 230 °C | 29 µM | 21% @ | > 10 µM | 
CCCNc1nc(N)c(-c2nc(-c3cccc(O)c3)cs2)s1 [A(29), 3-(4′-Amino-2′-propylamino-[2,5′]bithiazolyl-4-yl)-phenol] | > 1 µM |  | 13 µM |  | > 10 µM | 10% @
COc1cc(Nc2nc(N)c(-c3nc(-c4cccc(O)c4)no3)s2)cc(OC)c1OC [K(1), 3-{5-[4-Amino-2-(3,4,5-trimethoxy-phenylamino)-thiazol-5-yl]-[1,2,4]oxadiazol-3-yl}-phenol] | 0.95 µM |  | 6.7 µM | 42% @ | 5.4 µM | 
